Here are results for 13 compounds from patent US11466028B2, “Fused 1,4-oxazepines as BET protein degraders” (THE REGENTS OF THE UNIVERSITY OF MICHIGAN, priority 2016, dated 2022).

The structures appear in SMILES notation.

The subject of one test is MDA-MB-231. Kind of test: CellTiter-Glo cell growth inhibition, MDA-MB-231. It counts as cell-based. The following applies: Homo sapiens, MDA-MB-231, 96 h, 4 days, Table 4. As for the experimental part: (§1) Cell growth inhibitory activity of representative Compounds of the Disclosure was determined using the CellTiter-Glo® Luminescent Cell Viability Assay. Cells were seeded in 384-well white opaque cell culture plates at a density of 2,000 cells/well with serially diluted compounds and incubated at 37° C. in an atmosphere of 95% air and 5% CO2 for 4 days. Cell viability was determined using the CellTiter-Glo® Luminescent Cell Viability Assay Kit (Promega, Madison, Wis.) according to the manufacture's instruction. Briefly, a volume of CellTiter-Glo® Reagent equal to the volume of cell culture medium was added to each well, and then the plates were incubated at room temperature for 10-20 minutes. The luminescent signal was measured using a Tecan Infinite M1000 multimode microplate reader (Tecan, Morrisville, N.C.). The half maximal inhibitory concentration (IC50) was calculated using the GraphPad Prism 5 software (GraphPad Software, La Jolla, Calif.).

A further test relates to RS4;11. In words: CellTiter-Glo cell growth inhibition, RS4;11. It counts as cell-based. As to conditions: Homo sapiens, RS4-11, 96 h, 4 days, Table 4, read-out: RS-4, 11 IC50. As for the experimental part: as §1
(§2) Cpd. Nos. 18 and 19 were tested in various leukemia cell lines using the CellTiter-Glo® Luminescent Cell Viability Assay as described in Example 35.
(ATP-based viability assays read luminescence as a measure of living cells.)

A further test relates to MOLM-13. Kind of test: CellTiter-Glo cell growth inhibition, MOLM-13. In kind it is cell-based. As to conditions: Homo sapiens, MOLM-13, 96 h, 4 days, Table 4, read-out: MOLM-13 IC50. As for the experimental part: as §1, §2
Another test concerns RS4;11 xenograph tumors. In words: RS4;11 xenograft model. It counts as in vivo, SCID mice. The following applies: SCID mice, i.v. 10 mg/kg at days 1, 3, 5 per week for two weeks, FIG. 3. On the procedure:
Cpd. Nos. 7 and 11 were dissolved in 10% PCP [10% PEG400 (Sigma), 3% Cremophor (Sigma), and 87% PBS (Gibco)]. The pH of the drug solutions were checked before use and adjusted with 0.5N NaOH to be between pH 6.5 and 8.0 for IV (intravenous) administration.
RS4;11 cells were maintained at 37° C., 95% air, 5% carbon dioxide in Improved MEM (Richter's Mod.) supplemented with 10% Fetal Bovine Serum, 100 units/ml of penicillin and 100 units/ml of streptomycin (GIBCO™, Invitrogen Corp.) and passaged twice weekly.
Tumor cells for xenografts were harvested with Trypsin (0.05%)-EDTA (0.53 mM) (GIBCO™, Invitrogen Corp.), growth medium added and cells placed on ice. Cells were washed once with 1×PBS (GIBCO™, Invitrogen Corp.) and re-suspended in PBS. After washing in PBS, cells were re-suspended in an ice cold mixture of 1:1 PBS and Matrigel (BD Biosciences, Invitrogen Corp.) for a final Matrigel protein concentration of 5 mg/ml. Cells at 5×10^6 cells in 0.1 ml were injected subcutaneously (s.c.) into the flank region of each mouse using a 25 gauge needle. All tumors were inoculated into SCID mice (strain:236) C.B-17 SCID, Charles River.
The size of tumors growing in the mice was measured in two dimensions using calipers. Tumor volume (mm^3)═(A×B^2)/2 where A and B are the tumor length and width (in mm), respectively. During treatment, tumor volume and body weight were measured three times a week. After the treatment was stopped, tumor volume and body weight was measured at least once a week.
Tumors were not allowed to exceed 10% of the animals total body weight. If an animal had two or more tumors the total weight of all tumors were not allowed to exceed 10% of the animal's total body weight. At the end of the experimental period or when tumor size approached 10% of the total body weight, the animal was euthanized.
Before treatment began, tumors were allowed to grow to 100-200 mm^3 in volume, at which point the blood vessel supplies to the tumor should have been well established. Mice with tumors within acceptable size range were randomized into treatment groups of seven mice. Cpd. Nos. 7 and 11 were given i.v. at 10 mg/kg at days 1,3, and 5 per week for two weeks. The Control group received vehicle alone. Cpd. Nos. 16, 18, 22 and 48 were given i.v. at 5 mg/kg at days 1, 3, and 5 per week for two weeks. The Control group received vehicle alone.
Representative Compounds of the Disclosure were tested in the RS4;11 and other xenograph models using similar techniques. […] No. 22 in the MDA-MB-231 TNBC model.

The term IC50 denotes the concentration that gives 50% inhibition. Consider `Cc1nnc2n1-c1sc(C#Cc3cnn(CCCC#Cc4cccc5c4C(=O)N(C4CCC(=O)NC4=O)C5=O)c3)c(Cc3ccccc3)c1CO[C@H]2C` (stereo partly drawn) [Cpd. No. 14, 4-(5-(4-(((S)-3-benzyl-6,9-dimethyl-4H,6H-thieno[2,3-e][1,2,4]triazolo[3,4-c][1,4]oxazepin-2-yl)ethynyl)-1H-pyrazol-1-yl)pent-1-yn-1-yl)-2-(2,6-dioxopiperidin-3-yl)isoindoline-1,3-dione], for which the values for the half-inhibitory concentration (IC50) in the test with MDA-MB-231, in the test on RS4;11 and with MOLM-13 were 9.3 nM, 0.43 nM and 8.7 nM, respectively.
With `Cc1nnc2n1-c1sc(C#Cc3cnn(CCCCOc4cccc5c4C(=O)N(C4CCC(=O)NC4=O)C5=O)c3)c(Cc3ccccc3)c1COC2` (centres unmarked) [Cpd. No. 45, 4-(4-(4-((3-benzyl-9-methyl-4H,6H-thieno[2,3-e][1,2,4]triazolo[3,4-c][1,4]oxazepin-2-yl)ethynyl)-1H-pyrazol-1-yl)butoxy)-2-(2,6-dioxopiperidin-3-yl) isoindoline-1,3-dione], the figures for the IC50 in the test on MDA-MB-231, in the test with RS4;11 and in the test with MOLM-13 were 3.2 nM, below 0.1 nM and 3.2 nM, respectively.
On to `Cc1nnc2n1-c1sc(C#Cc3cn(CCCC#Cc4cccc5c4C(=O)N(C4CCC(=O)NC4=O)C5=O)cn3)c(Cc3ccccc3)c1CO[C@H]2C` (stereo partly drawn) [compound 21, 4-(5-(4-(((S)-3-benzyl-6,9-dimethyl-4H,6H-thieno[2,3-e][1,2,4]triazolo[3,4-c][1,4]oxazepin-2-yl)ethynyl)-1H-imidazol-1-yl)pent-1-yn-1-yl)-2-(2,6-dioxopiperidin-3-yl)isoindoline-1,3-dione], for which the values for the half-maximal inhibitory concentration (IC50) in the test with MDA-MB-231, in the test on RS4;11 and in the test with MOLM-13 were 60 nM, 3 nM and 15.7 nM, respectively.
Regarding `Cc1nnc2n1-c1sc(C#Cc3cn(CCCC#Cc4cccc5c4CN(C4CCC(=O)NC4=O)C5=O)cn3)c(Cc3ccccc3)c1COC2` (centres unmarked) [Cpd. No. 50, 3-(4-(5-(4-((3-benzyl-9-methyl-4H,6H-thieno[2,3-e][1,2,4]triazolo[3,4-c][1,4]oxazepin-2-yl)ethynyl)-1H-imidazol-1-yl)pent-1-yn-1-yl)-1-oxoisoindolin-2-yl)piperidine-2,6-dione], the results for the IC50 with MDA-MB-231, in the test with RS4;11 and with MOLM-13 were above 100 nM, above 1 nM and above 10 nM, respectively.
In the case of `Cc1nnc2n1-c1sc(C#Cc3cn(CCCCNc4cccc5c4CN(C4CCC(=O)NC4=O)C5=O)cn3)c(Cc3ccccc3)c1CO[C@H]2C` (stereo partly drawn) [Cpd. No. 13, 3-(4-((4-(4-(((S)-3-benzyl-6,9-dimethyl-4H,6H-thieno[2,3-e][1,2,4]triazolo[3,4-c][1,4]oxazepin-2-yl)ethynyl)-1H-imidazol-1-yl)butyl)amino)-1-oxoisoindolin-2-yl)piperidine-2,6-dione], the IC50 in the test with MDA-MB-231 worked out at 58 nM; with RS4;11 it was 1.8 nM; with MOLM-13, 20 nM.
Consider `Cc1nnc2n1-c1sc(C#Cc3cnc(CCCC#Cc4cccc5c4CN(C4CCC(=O)NC4=O)C5=O)n3C)c(Cc3ccccc3)c1CO[C@H]2C` (stereo partly drawn) [Cpd. No. 15, 3-(4-(5-(5-(((S)-3-benzyl-6,9-dimethyl-4H,6H-thieno[2,3-e][1,2,4]triazolo[3,4-c][1,4]oxazepin-2-yl)ethynyl)-1-methyl-1H-imidazol-2-yl)pent-1-yn-1-yl)-1-oxoisoindolin-2-yl)piperidine-2,6-dione], for which the 50% inhibitory concentration (IC50) was 25 nM in the test with MDA-MB-231, 0.2 nM in the test on RS4;11 and 7.5 nM in the test on MOLM-13.
Take `Cc1nnc2n1-c1sc(C#Cc3cnn(CCCC#Cc4cccc5c4C(=O)N(C4CCC(=O)NC4=O)C5=O)c3)c(Cc3ccccc3)c1COC2` (centres unmarked) [Cpd. No. 49, 4-(5-(4-((3-benzyl-9-methyl-4H,6H-thieno[2,3-e][1,2,4]triazolo[3,4-c][1,4]oxazepin-2-yl)ethynyl)-1H-pyrazol-1-yl)pent-1-yn-1-yl)-2-(2,6-dioxopiperidin-3-yl)isoindoline-1,3-dione]: the half-maximal inhibitory concentration (IC50) in the test on MDA-MB-231 stood at 5.5 nM; in the test with RS4;11, 0.56 nM; in the test with MOLM-13, 9.6 nM.
`Cc1nnc2n1-c1sc(C#Cc3ccc(CCCCNc4cccc5c4CN(C4CCC(=O)NC4=O)C5=O)nc3)c(Cc3ccccc3)c1COC2` (centres unmarked) [Cpd. No. 46, 3-(4-((4-(5-((3-benzyl-9-methyl-4H,6H-thieno[2,3-e][1,2,4]triazolo[3,4-c][1,4]oxazepin-2-yl)ethynyl)pyridin-2-yl)butyl)amino)-1-oxoisoindolin-2-yl) piperidine-2,6-dione]: the IC50 with MDA-MB-231 is 2.4 nM; in the test with RS4;11 it was below 0.1 nM; in the test on MOLM-13, 2.8 nM.
On to `Cc1nnc2n1-c1sc(C#Cc3cnn(CCCCNc4cccc5c4CN(C4CCC(=O)NC4=O)C5=O)c3)c(Cc3ccccc3)c1CO[C@H]2C` (stereo partly drawn) [Cpd. No. 11, 3-(4-((4-(4-(((S)-3-benzyl-6,9-dimethyl-4H,6H-thieno[2,3-e][1,2,4]triazolo[3,4-c][1,4]oxazepin-2-yl)ethynyl)-1H-pyrazol-1-yl)butyl)amino)-1-oxoisoindolin-2-yl) piperidine-2,6-dione], for which the “tumor regression in RS4;11 xenograph tumors” value in the test with RS4;11 xenograph tumors is listed as “induce tumor regression”. The values for the IC50 in the test with MDA-MB-231 and with MOLM-13 were 2.3 nM and 0.4 nM, respectively.
Take `Cc1nnc2n1-c1sc(C#Cc3ccc(CCCCNc4cc(F)cc5c4CN(C4CCC(=O)NC4=O)C5=O)nc3)c(Cc3ccccc3)c1COC2` (centres unmarked) [Cpd. No. 47, 3-(4-((4-(5-((3-benzyl-9-methyl-4H,6H-thieno[2,3-e][1,2,4]triazolo[3,4-c][1,4]oxazepin-2-yl)ethynyl)pyridin-2-yl)butyl)amino)-6-fluoro-1-oxoisoindolin-2-yl)piperidine-2,6-dione]: the figures for the half-maximal inhibitory concentration (IC50) in the test with MDA-MB-231, in the test on RS4;11 and in the test with MOLM-13 were 2.3 nM, below 0.1 nM and 1.8 nM, respectively.
Turning to `Cc1nnc2n1-c1sc(C#CCOCCOCCOCCNc3cccc4c3C(=O)N(C3CCC(=O)NC3=O)C4=O)c(Cc3ccccc3)c1CO[C@H]2C` (stereo partly drawn) [Cpd. No. 4, 4-((2-(2-(2-((3-((S)-3-benzyl-6,9-dimethyl-4H,6H-thieno[2,3-e][1,2,4]triazolo[3,4-c][1,4]oxazepin-2-yl)prop-2-yn-1-yl)oxy)ethoxy)ethoxy)ethyl)amino)-2-(2,6-dioxopiperidin-3-yl)isoindoline-1,3-dione], the values for the IC50 in the test on MDA-MB-231 and in the test with MOLM-13 were 12.8 nM and 0.8 nM, respectively.
In the case of `Cc1nnc2n1-c1sc(C#Cc3cnc(CCCC#Cc4cccc5c4C(=O)N(C4CCC(=O)NC4=O)C5=O)[nH]3)c(Cc3ccccc3)c1CO[C@H]2C` (stereo partly drawn) [Cpd. No. 12, 4-(5-(5-(((S)-3-benzyl-6,9-dimethyl-4H,6H-thieno[2,3-e][1,2,4]triazolo[3,4-c][1,4]oxazepin-2-yl)ethynyl)-1H-imidazol-2-yl)pent-1-yn-1-yl)-2-(2,6-dioxopiperidin-3-yl)isoindoline-1,3-dione], the IC50 in the test on MDA-MB-231, in the test on RS4;11 and in the test on MOLM-13 was above 1000 nM throughout.
As to `Cc1nnc2n1-c1sc(C#Cc3cn(CCCC#Cc4cccc5c4CN(C4CCC(=O)NC4=O)C5=O)cn3)c(Cc3ccccc3)c1CO[C@H]2C` (stereo partly drawn) [Cpd. No. 20, 3-(4-(5-(4-(((S)-3-benzyl-6,9-dimethyl-4H,6H-thieno[2,3-e][1,2,4]triazolo[3,4-c][1,4]oxazepin-2-yl)ethynyl)-1H-imidazol-1-yl)pent-1-yn-1-yl)-1-oxoisoindolin-2-yl)piperidine-2,6-dione], the IC50 in the test on MDA-MB-231 was determined as 16 nM; with RS4;11, 0.7 nM; in the test with MOLM-13, 3.8 nM.
